Source: ChEMBL document CHEMBL5360661, “Structure-Activity Relationship Study of 1H-Pyrrole-3-carbonitrile Derivatives as STING Receptor Agonists” (ACS Med Chem Lett, 2023)
pEC50, pIC50: −log10 of the molar value. Active and inactive are the calls of the source. The calls are words filed in the database; no cut-off is given here.

How the values were obtained:
[1] = Competitive inhibition of 5-FAM labelled diABZI binding to recombinant human STING R293Q variant C-terminal domain (139 to 378 residues) expressed in Escherichia coli BL21 (DE3) cells incubated for 10 mins by fluorescence polarization assay
[2] = biological target: T1, Stimulator of interferon genes protein (Mus musculus, UniProt Q3TBT3); assay: Competitive inhibition of 5-FAM labelled diABZI binding to recombinant 6-his tagged mouse STING C-terminal domain (144 to 378 residues) expressed in Escherichia coli BL21 (DE3) cells incubated for 10 mins by fluorescence polarization assay
T1 sequence (Q3TBT3 whole entry): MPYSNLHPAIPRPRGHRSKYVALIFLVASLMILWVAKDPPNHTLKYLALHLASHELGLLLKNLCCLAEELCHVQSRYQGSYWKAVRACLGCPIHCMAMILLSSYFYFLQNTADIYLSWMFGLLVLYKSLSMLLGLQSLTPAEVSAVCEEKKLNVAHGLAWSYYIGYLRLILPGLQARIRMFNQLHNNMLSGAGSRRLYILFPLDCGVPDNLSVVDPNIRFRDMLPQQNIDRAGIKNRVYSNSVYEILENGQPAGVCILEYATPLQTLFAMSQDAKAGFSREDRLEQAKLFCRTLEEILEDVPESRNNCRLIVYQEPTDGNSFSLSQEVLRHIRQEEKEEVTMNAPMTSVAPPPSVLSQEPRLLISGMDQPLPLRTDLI

[3] = Competitive inhibition of 5-FAM labelled diABZI binding to recombinant human STING R232H variant C-terminal domain (139 to 378 residues) expressed in Escherichia coli BL21 (DE3) cells incubated for 10 mins by fluorescence polarization assay
Homo sapiens [4] = organism: Homo sapiens; assay: (§1) Binding affinity to recombinant human STING G230A and R293Q variant C-terminal domain (139 to 378 residues) expressed in Escherichia coli BL21 (DE3) cells assessed as thermal stabilization by measuring change in melting temperature at 50 uM incubated at 25 to 95 degreeC for 45 mins by SYPRO orange dye based fluorescence analysis
[5] = system: Stimulator of interferon genes protein (Homo sapiens), Q86WV6 [UNDEFINED MUTATION]; assay: as §1, with “recombinant wildtype” for “recombinant”, “R232” for “G230A and R293Q”
Sequence of Stimulator of interferon genes protein (Homo sapiens), Q86WV6 [UNDEFINED MUTATION] (Q86WV6 whole entry, looked up, stated change not applied, the tested form may be a part): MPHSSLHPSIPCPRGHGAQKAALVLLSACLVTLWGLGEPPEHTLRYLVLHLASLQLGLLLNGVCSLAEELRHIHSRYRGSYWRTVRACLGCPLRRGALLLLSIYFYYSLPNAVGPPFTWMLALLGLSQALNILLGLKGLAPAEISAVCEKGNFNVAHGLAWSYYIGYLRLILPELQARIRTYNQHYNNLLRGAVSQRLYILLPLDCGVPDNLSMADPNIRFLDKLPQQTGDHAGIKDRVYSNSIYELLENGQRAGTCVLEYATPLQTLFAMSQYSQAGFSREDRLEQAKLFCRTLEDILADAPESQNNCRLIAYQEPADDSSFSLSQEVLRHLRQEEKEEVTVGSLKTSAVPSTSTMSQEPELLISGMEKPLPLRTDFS

[6] = biological target: T2, Stimulator of interferon genes protein (Homo sapiens, UniProt Q86WV6); assay: Competitive inhibition of 5-FAM labelled diABZI binding to recombinant wildtype human STING R232 variant C-terminal domain (139 to 378 residues) expressed in Escherichia coli BL21 (DE3) cells incubated for 10 mins by fluorescence polarization assay
Target sequence in this assay (Q86WV6 whole entry, looked up, stated change not applied, the tested form may be a part): as above

[7] = Competitive inhibition of 5-FAM labelled diABZI binding to recombinant human STING G230A and R293Q variant C-terminal domain (139 to 378 residues) expressed in Escherichia coli BL21 (DE3) cells incubated for 10 mins by fluorescence polarization assay
[8] = biological target: T3, Stimulator of interferon genes protein (Mus musculus) (UniProt Q3TBT3); assay: as §1, with “6-His tagged mouse” for “human”, “STING” for “STING G230A and R293Q variant”, “(144” for “(139”
T3 sequence (whole entry): T1 sequence (Q3TBT3 whole entry)

Homo sapiens [9] = organism: Homo sapiens; assay: as §1, with “STING” for “STING G230A and”
Homo sapiens [10] = organism: Homo sapiens; assay: as §1, with “R232H” for “G230A and R293Q”
[11] = biological target: T2, Stimulator of interferon genes protein; assay: Agonist activity at STING in PMA-differentiated wildtype human THP1-Blue ISG cells harboring IRF-inducible SEAP reporter construct incubated for 24 hrs by QUANTI-Blue assay; format: cell-based
Target sequence in this assay (Q86WV6 whole entry, the tested form may be a part): as the sequence (Q86WV6 whole entry, looked up, stated change not applied, the tested form may be a part) above

[12] = biological target: T2, Stimulator of interferon genes protein; assay: Activation of cGAS-STING pathway in human THP-1 cells assessed as stimulation of IFNB1 gene expression at 15 uM by RT-qPCR analysis; format: cell-based; conditions: filed as activator, time <= 8.0 hrs
Target sequence in this assay (Q86WV6 whole entry, the tested form may be a part): as the sequence (Q86WV6 whole entry, looked up, stated change not applied, the tested form may be a part) above

[13] = biological target: T2, Stimulator of interferon genes protein; assay: Activation of cGAS-STING pathway in wildtype human THP1-Blue ISG cells assessed as induction of p65 phosphorylation at Ser536 residue at 15 uM incubated upto 6 hrs by Western blot analysis; format: cell-based; conditions: filed as activator
Target sequence in this assay (Q86WV6 whole entry, the tested form may be a part): as the sequence (Q86WV6 whole entry, looked up, stated change not applied, the tested form may be a part) above

[14] = biological target: T2, Stimulator of interferon genes protein; assay: Activation of cGAS-STING pathway in human THP1-Dual KO-cGAS cells assessed as induction of STING phosphorylation at Ser366 residue at 15 uM incubated for 1 hrs by Western blot analysis; format: cell-based; conditions: filed as activator
Target sequence in this assay (Q86WV6 whole entry, the tested form may be a part): as the sequence (Q86WV6 whole entry, looked up, stated change not applied, the tested form may be a part) above

[15] = biological target: T2, Stimulator of interferon genes protein; assay: Activation of cGAS-STING pathway in human THP-1 cells assessed as stimulation of CXCL10 gene expression at 15 uM by RT-qPCR analysis; format: cell-based; conditions: filed as activator, time <= 8.0 hrs
Target sequence in this assay (Q86WV6 whole entry, the tested form may be a part): as the sequence (Q86WV6 whole entry, looked up, stated change not applied, the tested form may be a part) above

[16] = biological target: T2, Stimulator of interferon genes protein; assay: Activation of cGAS-STING pathway in wildtype human THP1-Blue ISG cells assessed as induction of STING phosphorylation at Ser366 residue at 15 uM incubated upto 6 hrs by Western blot analysis; format: cell-based; conditions: filed as activator
Target sequence in this assay (Q86WV6 whole entry, the tested form may be a part): as the sequence (Q86WV6 whole entry, looked up, stated change not applied, the tested form may be a part) above

[17] = biological target: T2, Stimulator of interferon genes protein; assay: Activation of cGAS-STING pathway in wildtype human THP1-Blue ISG cells assessed as induction of IRF3 phosphorylation at Ser396 residue at 15 uM incubated upto 6 hrs by Western blot analysis; format: cell-based; conditions: filed as activator
[18] = biological target: T2, Stimulator of interferon genes protein; assay: Activation of cGAS-STING pathway in human THP1-Dual KO-cGAS cells assessed as induction of IRF3 phosphorylation at Ser396 residue at 15 uM incubated for 1 hrs by Western blot analysis; format: cell-based; conditions: filed as activator
[19] = biological target: T2, Stimulator of interferon genes protein; assay: Activation of cGAS-STING pathway in wildtype human THP1-Blue ISG cells assessed as induction of TBK1 phosphorylation at Ser172 residue at 15 uM incubated upto 6 hrs by Western blot analysis; format: cell-based; conditions: filed as activator
[20] = biological target: T2, Stimulator of interferon genes protein; assay: Activation of cGAS-STING pathway in human THP1-Dual KO-cGAS cells assessed as induction of STAT3 phosphorylation at Tyr705 residue at 15 uM incubated for 1 hrs by Western blot analysis; format: cell-based; conditions: filed as activator
[21] = biological target: T2, Stimulator of interferon genes protein; assay: Activation of cGAS-STING pathway in human THP1-Dual KO-STING cells assessed as induction of IRF3 phosphorylation at Ser396 residue at 15 uM incubated for 1 hrs by Western blot analysis; format: cell-based
[22] = biological target: T2, Stimulator of interferon genes protein; assay: Activation of cGAS-STING pathway in human THP1-Dual KO-STING cells assessed as induction of STING phosphorylation at Ser366 residue at 15 uM incubated for 1 hrs by Western blot analysis; format: cell-based
[23] = biological target: T2, Stimulator of interferon genes protein; assay: Activation of cGAS-STING pathway in human THP1-Dual KO-STING cells assessed as induction of STAT3 phosphorylation at Tyr705 residue at 15 uM incubated for 1 hrs by Western blot analysis; format: cell-based
[24] = biological target: T2, Stimulator of interferon genes protein; assay: Activation of cGAS-STING pathway in human THP1-Dual KO-cGAS cells assessed as induction of p65 phosphorylation at Ser536 residue at 15 uM incubated for 1 hrs by Western blot analysis; format: cell-based; conditions: filed as activator
[25] = biological target: T2, Stimulator of interferon genes protein; assay: Activation of cGAS-STING pathway in human THP1-Dual KO-STING cells assessed as induction of TBK1 phosphorylation at Ser172 residue at 15 uM incubated for 1 hrs by Western blot analysis; format: cell-based
[26] = biological target: T2, Stimulator of interferon genes protein; assay: Activation of cGAS-STING pathway in human THP-1 cells assessed as stimulation of IL6 gene expression at 15 uM by RT-qPCR analysis; format: cell-based; conditions: filed as activator, time <= 8.0 hrs
[27] = biological target: T2, Stimulator of interferon genes protein; assay: Activation of cGAS-STING pathway in human THP1-Dual KO-STING cells assessed as induction of p65 phosphorylation at Ser536 residue at 15 uM incubated for 1 hrs by Western blot analysis; format: cell-based
[28] = biological target: T2, Stimulator of interferon genes protein; assay: Activation of cGAS-STING pathway in wildtype human THP1-Blue ISG cells assessed as induction of STAT3 phosphorylation at Tyr705 residue at 15 uM incubated upto 6 hrs by Western blot analysis; format: cell-based; conditions: filed as activator
[29] = biological target: T2, Stimulator of interferon genes protein; assay: Activation of cGAS-STING pathway in human THP1-Dual KO-cGAS cells assessed as induction of TBK1 phosphorylation at Ser172 residue at 15 uM incubated for 1 hrs by Western blot analysis; format: cell-based; conditions: filed as activator

Row | Compound | pIC50 [1] | pIC50 [2] | pIC50 [3] | pIC50 [7] | ΔTm [8] [°C] | pEC50 [11] | ΔTm (Homo sapiens [4]) [°C] | ΔTm (Homo sapiens [9]) [°C] | ΔTm (Homo sapiens [10]) [°C] | other results
1 | N#Cc1ccn(-c2ccc(C(=O)Nc3cc(Br)c(Cl)cc3C(=O)O)nn2)c1 | 5.69 | 5.36 | 5.45 | 6.15 | 7 | 5.60 | 13.5 | 7.5 | 8.5 | ΔTm [5]: 6.5 °C; pIC50 [6]: 5.70
2 | N#Cc1ccn(-c2ccc(C(=O)Nc3cc(Cl)c(Br)cc3C(=O)O)nn2)c1 | – | – | – | – | – | 5.29 | – | – | 6.5 | –
3 | N#Cc1ccn(-c2ccc(C(=O)Nc3cc(Cl)c(Cl)cc3C(=O)O)nn2)c1 | 5.59 | 5.34 | 5.56 | 6.12 | 6.5 | 5.52 | 13.5 | 7.5 | 7.5 | ΔTm [5]: 6 °C; pIC50 [6]: 5.62
4 | O=C(Nc1cc(F)c(F)cc1C(=O)O)c1ccc(-n2ccnc2)nn1 | 5.26 | 5.66 | 5.31 | 6.14 | 10 | – | 14 | 7.5 | 8.5 | –
5 | N#Cc1ccn(-c2ccc(C(=O)Nc3cc(F)c(F)cc3C(=O)O)nn2)c1 | – | – | – | – | – | – | – | – | 3.5 | –

Now from value to compound, other results behind:

Row | pIC50 [1] | pIC50 [2] | pIC50 [3] | pIC50 [7] | ΔTm [8] [°C] | pEC50 [11] | Compound | ΔTm (Homo sapiens [4]) [°C] | ΔTm (Homo sapiens [9]) [°C] | ΔTm (Homo sapiens [10]) [°C] | other results
6 | 5.43 | 5.33 | 5.45 | 6.04 | 7.5 | 5.92 | C#Cc1cc(NC(=O)c2ccc(-n3ccc(C#N)c3)nn2)c(C(=O)O)cc1F | 13 | 7.5 | 8 | Activity [12]: Active; Activity [13]: Active; Activity [14]: Active; Activity [15]: Active; Activity [16]: Active; Activity [17]: Active; Activity [18]: Active; Activity [19]: Active; Activity [20]: Active; Activity [21]: inactive; ΔTm [5]: 6 °C; Activity [22]: inactive; Activity [23]: inactive; Activity [24]: Active; pIC50 [6]: 5.48; Activity [25]: inactive; Activity [26]: Active; Activity [27]: inactive; Activity [28]: Active; Activity [29]: Active
7 | – | – | – | – | – | 4.35 | N#Cc1ccn(-c2ccc(C(=O)Nc3cc(F)c(Br)cc3C(=O)O)nn2)c1 | – | – | 1 | –
8 | – | – | – | – | – | 5.01 | COc1cc(NC(=O)c2ccc(-n3ccc(C#N)c3)nn2)c(C(=O)O)cc1F | – | – | 4 | –
9 | – | – | – | – | – | 5.29 | N#Cc1ccn(-c2ccc(C(=O)Nc3cc(Cl)c(F)cc3C(=O)O)nn2)c1 | – | – | 6.5 | –
10 | – | – | – | – | – | 4.34 | Cc1cc(NC(=O)c2ccc(-n3ccc(C#N)c3)nn2)c(C(=O)O)cc1F | – | – | 1.5 | –
11 | – | – | – | – | – | 4.46 | CCc1cc(C(=O)O)c(NC(=O)c2ccc(-n3ccc(C#N)c3)nn2)cc1F | – | – | 0.5 | –
